Data on one compound can be found in US7115650B1, “Compositions for improving fertility” (Ferring BV, priority 1999, dated 2006).

What all share (type): in vivo, rat
The test system of assay [1] is obese Zucker Diabetic Fatty (ZDF) rats. In words: Pituitary LH content by radioimmunoassay in animal model of human infertility. Particulars: treated obese ZDF rats, oral 10 mg/kg/day, end of study; obese control 8.1±0.6, lean 6.3±0.6; p<0.05 vs control. On the procedure:
(§1) Obese Zucker Diabetic Fatty males and females as well as fertile lean males and females were put into individual cages and fed with Purina 5008 (6.5% fat). At 6.5 weeks of life, obese rats were randomized into 3 groups: • 1. Control group—obese ZDF rats (n=8) treated with vehicle. • 2. Once-daily treatment group—obese ZDF rats (n=8) given the compound of Example 1B orally once daily (10 mg/kg/day). • 3. Twice-daily treatment group—obese ZDF rats (n=8) given the compound of Example 1B orally twice daily (10 mg/kg/day). Methods
(§2) Blood and pituitaries of lean and obese rats were collected at the end of the study. Pituitary LH and plasma testosterone concentrations were measured by radioimmunoassay. Estrous cyclicity was evaluated by observation of vaginal smear.

In assay [2] the test system is obese Zucker Diabetic Fatty (ZDF) male rats. In words: Plasma testosterone by radioimmunoassay in animal model of human infertility. Particulars: treated obese ZDF males, oral 10 mg/kg/day, end of study; obese 1145±328, lean 2410±239; NS vs lean. On the procedure:
as §1, §2

The test system of assay [3] is obese Zucker Diabetic Fatty (ZDF) female rats. In words: Estrous cyclicity by observation of vaginal smear in animal model of human infertility. Particulars: oral 10 mg/kg/day, untreated obese females had abnormal cyclicity vs lean. On the procedure: as §1, §2

SMILES strings stand for the structures.

On to `CC(C)(C)[C@H](N)C(=O)N1CCC[C@H]1C#N` [Example 1B, (2S)-N-((2′S)-2′-amino-3′,3′-dimethylbutanoyl)pyrrolidine-2-carbonitrile], for which the “Pituitary LH content” value in assay [1] amounted to 5.2±0.4 μg/pituitary. The Plasma testosterone level in assay [2] is 2390 ± 759 pg/mL. Also, the Estrous cyclicity result in assay [3] is “normalised estrous cyclicity”.
